The record followed here is US7671079B2, “Sulfonyltetrahydro-3H-benzo(e)indole-8-amine compounds as 5-hydroxytryptamine-6 ligands” (Wyeth LLC, priority 2003, dated 2010).

The target in the assay is T1, human cloned 5-HT6 receptors (Homo sapiens, UniProt P50406).
T1 construct: expressed in transfected cells; host or cells: Hela cells
As to the kind of experiment: 5-HT6 binding affinity, [3H]-LSD displacement on membranes of Hela cells expressing human cloned 5-HT6 receptors. To be noted: [3H]-LSD 3.0 nM, Hela cell membranes, 120 min at room temperature. As to the method: The affinity of test compounds for the serotonin 5-HT6 receptor is evaluated in the following manner. Cultured Hela cells expressing human cloned 5-HT6 receptors are harvested and centrifuged at low speed (1,000×g) for 10.0 min to remove the culture media. The harvested cells are suspended in half volume of fresh physiological phosphate buffered saline solution and recentrifuged at the same speed. This operation is repeated. The collected cells are then homogenized in ten volumes of 50 mM Tris.HCl (pH 7.4) and 0.5 mM EDTA. The homogenate is centrifuged at 40,000×g for 30.0 min and the precipitate is collected. The obtained pellet is resuspended in 10 volumes of Tris.HCl buffer and recentrifuged at the same speed. The final pellet is suspended in a small volume of Tris.HCl buffer and the tissue protein content is determined in aliquots of 10-25 μl volumes. Bovine Serum Albumin is used as the standard in the protein determination according to the method described in Lowry et al., J. Biol. Chem., 193:265 (1951). The volume of the suspended cell membranes is adjusted to give a tissue protein concentration of 1.0 mg/ml of suspension. The prepared membrane suspension (10 times concentrated) is aliquoted in 1.0 ml volumes and stored at −70° C. until used in subsequent binding experiments.
Binding experiments are performed in a 96 well microtiter plate format, in a total volume of 200 μl. […] The test compounds are added in 20.0 μl volume.
The reaction is allowed to proceed in the dark for 120 min at room temperature, at which time, the bound ligand-receptor complex is filtered off on a 96 well unifilter with a Packard Filtermate® 196 Harvester. The bound complex caught on the filter disk is allowed to air dry and the radioactivity is measured in a Packard TopCount® equipped with six photomultiplier detectors, after the addition of 40.0 μl Microscint®-20 scintillant to each shallow well. The unifilter plate is heat-sealed and counted in a PackardTopCount® with a tritium efficiency of 31.0%.
Binding in the presence of varying concentrations of test compound is expressed as a percentage of specific binding in the absence of test compound. The results are plotted as log % bound versus log concentration of test compound. […] A linear regression line of data points is plotted, from which the IC50 value is determined and the Ki value is determined based upon the following equation: Ki=IC50/(1+L/KD) where L is the concentration of the radioactive ligand used and KD is the dissociation constant of the ligand for the receptor, both expressed in nM.

T1 sequence (P50406 whole entry): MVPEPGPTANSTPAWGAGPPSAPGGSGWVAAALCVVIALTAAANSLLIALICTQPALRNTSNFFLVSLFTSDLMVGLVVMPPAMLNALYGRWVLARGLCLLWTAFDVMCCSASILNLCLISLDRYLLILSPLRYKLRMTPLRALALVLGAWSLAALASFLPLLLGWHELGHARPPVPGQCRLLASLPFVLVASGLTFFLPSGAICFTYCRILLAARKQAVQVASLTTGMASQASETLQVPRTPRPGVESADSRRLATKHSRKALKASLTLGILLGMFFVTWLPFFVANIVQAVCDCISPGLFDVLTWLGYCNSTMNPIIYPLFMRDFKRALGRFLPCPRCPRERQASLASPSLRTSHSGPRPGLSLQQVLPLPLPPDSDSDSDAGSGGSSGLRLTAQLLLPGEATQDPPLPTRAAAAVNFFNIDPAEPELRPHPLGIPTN

Consider “3-[(2,3-dichlorophenyl)sulfonyl]-N,N-dimethyl-6,7,8,9-tetrahydro-3H-benzo[e]indol-8-amine [Example 16]”, for which the affinity corresponds to a Ki of 6 nM.
The value for “3-[(2,6-dichloroimidazo[2,1-b][1,3]thiazol-5-yl)sulfonyl]-N,N-dimethyl-6,7,8,9-tetrahydro-3H-benzo[e]indol-8-amine [Example 19]” was 5 nM; that for `CN(C)C1CCc2ccc3c(ccn3S(=O)(=O)c3ccccc3)c2C1` (stereo not shown) [Example 8, N,N-Dimethyl-3-(Phenylsulfonyl)-6,7,8,9-tetrahydro-3H-benzo[e]indol-8-amine] was 1 nM; that for `CN(C)C1CCc2ccc3c(ccn3S(=O)(=O)c3ccc(OC(F)(F)F)cc3)c2C1` (stereo not shown) [Example 9] was 79 nM.
Next, `CN(C)C1CCc2ccc3c(ccn3S(=O)(=O)c3ccc(F)cc3)c2C1` (stereo not shown) [Example 11, 3-[(4-fluorophenyl)sulfonyl]-N,N-dimethyl-6,7,8,9-tetrahydro-3H-benzo[e]indol-8-amine]: 19 nM; `CN(C)C1CCc2ccc3c(ccn3S(=O)(=O)c3ccc(C(F)(F)F)cc3Cl)c2C1` (stereo not shown) [Example 12]: 55 nM.
Next, `CN(C)C1CCc2ccc3c(ccn3S(=O)(=O)c3ccc(F)c(F)c3)c2C1` (stereo not shown) [Example 13, 3-[(3,4-difluorophenyl)sulfonyl]-N,N-dimethyl-6,7,8,9-tetrahydro-3H-benzo[e]indol-8-amine]: 9 nM; `CN(C)C1CCc2ccc3c(ccn3S(=O)(=O)c3ccccc3Cl)c2C1` (stereo not shown) [Example 14, 3-[(2-chlorophenyl)sulfonyl]-N,N-dimethyl-6,7,8,9-tetrahydro-3H-benzo[e]indol-8-amine]: 2 nM; `CN(C)C1CCc2ccc3c(ccn3S(=O)(=O)c3cccc(Cl)c3)c2C1` (stereo not shown) [Example 15, 3-[(3-chlorophenyl)sulfonyl]-N,N-dimethyl-6,7,8,9-tetrahydro-3H-benzo[e]indol-8-amine]: 2 nM.
`CN(C)C1CCc2ccc3c(ccn3S(=O)(=O)c3ccc(F)cc3F)c2C1` (stereo not shown) [Example 17, 3-[(2,4-diflorophenyl)sulfonyl]-N,N-dimethyl-6,7,8,9-tetrahydro-3H-benzo[e]indol-8-amine] registered a Ki of 8 nM.
Next, `CN(C)C1CCc2ccc3c(ccn3S(=O)(=O)c3c(Cl)nc4sccn34)c2C1` (stereo not shown) [Example 18, 3-[(6-chloroimidazo[2,1-b][1,3]thiazol-5-yl)sulfonyl]-N,N-dimethyl-6,7,8,9-tetrahydro-3H-benzo[e]indol-8-amine]: 6 nM; `Cc1noc(C)c1S(=O)(=O)n1ccc2c3c(ccc21)CCC(N(C)C)C3` (stereo not shown) [Example 20]: 59 nM.
Consider `Cc1ccc(S(=O)(=O)n2ccc3c4c(ccc32)CCC(NC2CC2)C4)cc1` (stereo not shown) [Example 21], for which the affinity corresponds to a Ki of 103 nM.
Next, `Cc1ccc(S(=O)(=O)n2ccc3c4c(ccc32)CCC(NC2CCC2)C4)cc1` (stereo not shown) [Example 24]: 36 nM.
Next, `CCCNC1CCc2ccc3c(ccn3S(=O)(=O)c3ccc(C)cc3)c2C1` (stereo not shown) [Example 25]: 12 nM; “N,N-dimethyl-3-(2-naphthylsulfonyl)-6,7,8,9-tetrahydro-3H-benzo[e]indol-8-amine [Example 10]”: 13 nM.
